Test results reported in US20030092197A1, “Proteins, genes and their use for diagnosis and treatment of cardiac response” (priority 2000, published 2003).

Experiments:
[1] = system: Cardiac Response-Associated Features (CRFs) in blood; assay: 2D gel electrophoresis of blood: CRFs differentially expressed in treated vs control animals (fold change); type: in vivo, rat
Protocol: Using the following procedure, proteins in blood samples from control animals and animals having cardiac response were separated by isoelectric focusing followed by SDS-PAGE and analyzed. Serial samples were taken over time. Parts 6.1.2 to 6.1.15 (inclusive) of the procedure set forth are hereby designated as the “Reference Protocol”
(§1) Cardiac response was induced by treatment with doxorubicin (DX) 1 mg/kg either alone or 30 min after an i.p. injection of dexrazoxane (ICRF) 50 mg/kg as described in the Examples infra. Treatment with ICRF alone was also administered. The treatment comprised of 7 weekly injections and samples were taken within 24 h after the final injection.
Samples from animals treated to induce cardiac reponse or treated with a cardioprotectant can be collected, prepared and analysed as described herein. In the studies provided herein, animals were administered an intravenous injection of either (i) doxorubicin 1 mg/kg alone; (ii) doxorubicin 1 mg/kg 30 min after an i.p. injection of dexrazoxane 50 mg/kg or (iii) treated with dexrazoxane 50 mg/kg alone. Control groups received saline only. 7 weekly injections were administered and samples were collected 24 h after the final injection. Plasma was collected for discovery of novel biomarkers of cardiac damage using 2-D gel electrophoresis and for measurement of cardiac specific troponin T levels. Tissues were collected for histopathological confirmation of cardiac tissue injury.
A protein assay (Pierce BCA Cat # 23225) was performed on each serum sample as received. Prior to protein separation, each sample was processed for selective depletion of certain proteins, in order to enhance and simplify protein separation and facilitate analysis by removing proteins that may interfere with or limit analysis of proteins of interest. See International Patent Application No. PCT/GB99/01742, filed Jun. 1, 1999, which is incorporated by reference in its entirety, with particular reference to the experimental protocol.
Removal of albumin, haptoglobin, transferrin and immunoglobin G (IgG) from blood (“blood depletion”) was achieved by an affinity chromatography purification step in which the sample was passed through a series of ‘Hi-Trap’ columns containing immobilized antibodies for selective removal of albumin, haptoglobin and transferrin, and protein G for selective removal of immunoglobin G. Two affinity columns in a tandem assembly were prepared by coupling antibodies to protein G-sepharose contained in Hi-Trap columns (Protein G-Sepharose Hi-Trap columns (1 ml) Pharmacia Cat. No. 17-0404-01). This was done by circulating the following solutions sequentially through the columns: (1) Dulbecco's Phosphate Buffered Saline (Gibco BRL Cat. No. 14190-094); (2) concentrated antibody solution; (3) 200 mM sodium carbonate buffer, pH 8.35; (4) cross-linking solution (200 mM sodium carbonate buffer, pH 8.35, 20 mM dimethylpimelimidate); and (5) 500 mM ethanolamine, 500 mM NaCl. A third (un-derivatised) protein G Hi-Trap column was then attached to the lower end of the tandem column assembly.
The chromatographic procedure was automated using an Akta Fast Protein Liquid Chromatography (FPLC) System such that a series of up to seven runs could be performed sequentially. The samples were passed through the series of 3 Hi-Trap columns in which the affinity chromatography media selectively bind the above proteins thereby removing them from the sample. Fractions (typically 3 ml per tube) were collected of unbound material (“Flowthrough fractions”) that eluted through the column during column loading and washing stages and of bound proteins (“Bound/Eluted fractions”) that were eluted by step elution with Immunopure Gentle Ag/Ab Elution Buffer (Pierce Cat. No. 21013). The eluate containing unbound material was collected in fractions which were pooled, desalted/concentrated by centrifugal ultrafiltration and stored to await further analysis by 2D PAGE. […]

[2] = system: spontaneous hypertensive rat; assay: Severity of cardiac myocyte histopathologic lesions graded by light microscopy; type: in vivo; conditions: scale of 0 to 3; 7 weekly injections; doxorubicin 1 mg/kg i.v., dexrazoxane 50 mg/kg i.p.
Protocol: as §1
Doxorubicin is a marketed anthracycline anticancer drug that causes a serious chronic cardiac toxicity. The spontaneous hypertensive rat is a useful animal model to study this toxicity. Furthermore by incorporating a cardioprotectant in the study design, the association of protein markers with the undesirable cardiotoxicity of the cardiotoxic agent is strengthened. Pretreatment with the intracellular iron chelating compound dexrazoxane (also referred to as ICRF-187) provides significant cardioprotection against clinical doxorubicin-induced cardiotoxicity and the drug has been FDA approved for this indication.
Samples from animals treated to induce cardiac reponse or treated with a cardioprotectant can be collected, prepared and analysed as described herein. […]
The severity of cardiac myocyte histopathologic lesions (cytoplasmic vacuolization and myofibrillar loss) was graded semiquantitatively by light microscopy on a scale of 0 to 3. […] Plasma cardiac troponin T concentrations were measured by chemiluminescent immunoassay. […]

COc1cccc2c1C(=O)c1c(O)c3c(c(O)c1C2=O)C[C@@](O)(C(=O)CO)C[C@@H]3O[C@H]1C[C@H](N)[C@H](O)[C@H](C)O1 [DX, doxorubicin]
FC DX vs Control ([1]; CRF 2, pI 5.7, MW 12,367 Da, P 0.010): −10.29 | FC DX vs Control ([1]; CRF 4, pI 5.2, MW 15,589 Da, P 1.7E-04): −9.20 | FC DX vs Control ([1]; CRF 6, pI 4.6, MW 34,921 Da, P 1.0E-03): −7.77 | FC DX vs Control ([1]; CRF 9, pI 5.2, MW 15,591 Da, P 1.5E-03): −5.72 | FC DX vs Control ([1]; CRF 10, pI 5, MW 51,899 Da, P 0.007): −6.99 | FC DX vs Control ([1]; CRF 19, pI 5.7, MW 68,576 Da, P 3.7E-04): −5.12 | FC DX vs Control ([1]; CRF 44, pI 5.8, MW 52,589 Da, P 1.1E-03): 4.83 | FC DX vs Control ([1]; CRF 47, pI 4.4, MW 11,368 Da, P 0.010): 6.81 | FC DX vs Control ([1]; CRF 58, pI 6.8, MW 34,063 Da, P 0.003): 5.43 | FC DX vs Control ([1]; CRF 69, pI 5.2, MW 54,619 Da, P 0.005): −3.54 | FC DX vs Control ([1]; CRF 79, pI 6.8, MW 80,678 Da, P 1.6E-04): −4.51 | FC DX vs Control ([1]; CRF 82, pI 7.6, MW 77,393 Da, P 2.9E-04): −9.06 | FC DX vs Control ([1]; CRF 84, pI 4.8, MW 73,524 Da, P 1.1E-03): −8.60 | FC DX vs Control ([1]; CRF 90, pI 5.2, MW 67,336 Da, P 0.005): −3.93 | FC DX vs Control ([1]; CRF 92, pI 6.0, MW 63,037 Da, P 0.006): −8.26 | FC DX vs Control ([1]; CRF 103, pI 5, MW 56,471 Da, P 0.007): −6.02 | FC DX vs Control ([1]; CRF 104, pI 7, MW 53,989 Da, P 0.003): −11.48 | FC DX vs Control ([1]; CRF 112, pI 7.1, MW 47,499 Da, P 0.006): 4.92 | FC DX vs Control ([1]; CRF 115, pI 7.1, MW 38,136 Da, P 2.3E-04): 3.55 | FC DX vs Control ([1]; CRF 118, pI 6.5, MW 33,117 Da, P 3.4E-04): −4.82 | FC DX vs Control ([1]; CRF 122, pI 5.3, MW 24,915 Da, P 0.003): 3.98 | FC DX vs Control ([1]; CRF 127, pI 4.8, MW 23,325 Da, P 0.006): 5.25 | FC DX vs Control ([1]; CRF 129, pI 5.4, MW 17,765 Da, P 0.010): 4.29 | FC DX vs Control ([1]; CRF 130, pI 4.8, MW 14,082 Da, P 0.009): −4.56 | FC DX vs Control ([1]; CRF 131, pI 4.3, MW 11,917 Da, P 0.009): 4.28 | FC DX vs Control ([1]; CRF 134, pI 5.1, MW 51,125 Da, P 0.009): 7.99 | FC DX vs Control ([1]; CRF 135, pI 7.3, MW 85,176 Da, P 1.2E-05): 4.77 | FC DX vs Control ([1]; CRF 142, pI 5.4, MW 105,458 Da, P 0.007): −5.30 | FC DX vs Control ([1]; CRF 144, P 3.7E-04): −3.70 | FC DX vs Control ([1]; CRF 145, P 4.5E-04): 3.68 | FC DX vs Control ([1]; CRF 146, P 6.2E-04): −4.19 | FC DX vs Control ([1]; CRF 147, P 0.002): −4.61 | FC DX vs Control ([1]; CRF 148, P 0.002): −5.11 | FC DX vs Control ([1]; CRF 149, P 0.002): −3.78 | FC DX vs Control ([1]; CRF 150, pI 4.11, MW 47828 Da, P 0.003): −8.39 | FC DX vs Control ([1]; CRF 151, P 0.003): 3.50 | FC DX vs Control ([1]; CRF 152, P 0.003): −3.97 | FC DX vs Control ([1]; CRF 153, P 0.004): −4.57 | FC DX vs Control ([1]; CRF 154, pI 7.79, MW 55965 Da, P 0.004): 5.39 | FC DX vs Control ([1]; CRF 155, P 0.004): −3.84 | FC DX vs Control ([1]; CRF 156, pI 6.89, MW 78237 Da, P 0.005): −3.99 | FC DX vs Control ([1]; CRF 157, P 0.005): −3.54 | FC DX vs Control ([1]; CRF 158, P 0.005): −4.59 | FC DX vs Control ([1]; CRF 159, P 0.006): 4.04 | FC DX vs Control ([1]; CRF 160, P 0.006): −6.43 | FC DX vs Control ([1]; CRF 161, P 0.006): 4.58 | FC DX vs Control ([1]; CRF 162, P 0.006): −4.37 | FC DX vs Control ([1]; CRF 163, P 0.006): 5.15 | FC DX vs Control ([1]; CRF 164, pI 4.51, MW 72286 Da, P 0.007): 4.75 | FC DX vs Control ([1]; CRF 165, P 0.007): −5.52 | FC DX vs Control ([1]; CRF 166, P 0.008): −3.86 | FC DX vs Control ([1]; CRF 167, P 0.008): 3.77 | FC DX vs Control ([1]; CRF 168, P 0.009): 4.20 | average lesion score (cytoplasmic vacuolization and myofibrillar loss) [2]: 2.1

C[C@@H](CN1CC(=O)NC(=O)C1)N1CC(=O)NC(=O)C1 [ICRF, dexrazoxane]
FC ICRF vs Control ([1]; CRF 28, pI 5.7, MW 26,409 Da, P 0.004): −2.93 | FC ICRF vs Control ([1]; CRF 56, pI 4.9, MW 48,318 Da, P 0.004): 3.12 | FC ICRF vs Control ([1]; CRF 162, P 0.003): −3.47 | average lesion score (cytoplasmic vacuolization and myofibrillar loss) [2]: 0
